# In publication PMC7587962, “Evaluation of Cytotoxicity and α-Glucosidase Inhibitory Activity of Amide and Polyamino-Derivatives of Lupane Triterpenoids” (Molecules, 2020):
# Like-named read-outs stand apart in the source and are kept apart here.
# Key:
# UACC-257 = test: NCI-60 SRB screen: melanoma UACC-257; assay type: cell-based, human; details: UACC-257
# Colon Cancer subpanel = test: NCI-60 screen, subpanel Colon Cancer
# SR = test: NCI-60 SRB screen: leukemia SR; assay type: cell-based; details: Homo sapiens, 48 h
# UACC-62 = test: NCI-60 SRB screen: melanoma UACC-62; assay type: cell-based, human; details: UACC-62
# [1] = system: 60 human tumor cell lines; details: single dose 10 µM
# A498 = test: NCI-60 SRB screen: renal cancer A498; assay type: cell-based, human; details: A498
# SK-OV-3 = test: NCI-60 SRB screen: ovarian cancer SK-OV-3; assay type: cell-based, human; details: SK-OV-3
# NCI-H522 = test: NCI-60 SRB screen: non-small cell lung cancer NCI-H522; assay type: cell-based, human; details: NCI-H522
# MCF7 = test: NCI-60 SRB screen: breast cancer MCF7; assay type: cell-based; details: Homo sapiens, 48 h, MCF7
# SK-MEL-28 = test: NCI-60 SRB screen: melanoma SK-MEL-28; assay type: cell-based, human; details: SK-MEL-28
# COLO 205 = test: NCI-60 SRB screen: colon cancer COLO 205; assay type: cell-based, human; details: COLO 205
# Melanoma subpanel = test: NCI-60 screen, subpanel Melanoma
# Leukemia subpanel = test: NCI-60 screen, subpanel Leukemia
# NCI-H226 = test: NCI-60 SRB screen: non-small cell lung cancer NCI-H226; assay type: cell-based, human; details: NCI-H226
# CNS cancer subpanel = test: NCI-60 screen, subpanel CNS cancer
# LOX IMVI = test: NCI-60 SRB screen: melanoma LOX IMVI; assay type: cell-based, human
# NCI/ADR-RES = test: NCI-60 SRB screen: ovarian cancer NCI/ADR-RES; assay type: cell-based, human
# SNB-19 = test: NCI-60 SRB screen: CNS cancer SNB-19; assay type: cell-based, human; details: SNB-19
# SN12C = test: NCI-60 SRB screen: renal cancer SN12C; assay type: cell-based, human
# HL-60(TB) = test: NCI-60 SRB screen: leukemia HL-60(TB); assay type: cell-based; details: Homo sapiens, 48 h, HL-60(TB)
# [2] = system: 60 human tumor cell lines; test: cells
# BT-549 = test: NCI-60 SRB screen: breast cancer BT-549; assay type: cell-based, human; details: BT-549
# UO-31 = test: NCI-60 SRB screen: renal cancer UO-31; assay type: cell-based, human; details: UO-31
# MDA-MB-468 = test: NCI-60 SRB screen: breast cancer MDA-MB-468; assay type: cell-based, human
# SW-620 = test: NCI-60 SRB screen: colon cancer SW-620; assay type: cell-based; details: Homo sapiens, 48 h, SW-620
# HCT-15 = test: NCI-60 SRB screen: colon cancer HCT-15; assay type: cell-based, human; details: HCT-15
# 786-0 = test: NCI-60 SRB screen: renal cancer 786-0; assay type: cell-based, human; details: 786-0
# Breast cancer subpanel = test: NCI-60 screen, subpanel Breast cancer
# SK-MEL-2 = test: NCI-60 SRB screen: melanoma SK-MEL-2; assay type: cell-based, human; details: SK-MEL-2
# OVCAR-4 = test: NCI-60 SRB screen: ovarian cancer OVCAR-4; assay type: cell-based; details: Homo sapiens; OVCAR-4; five concentrations, 48 h, SRB; read-out: GI50
# Prostate cancer subpanel = test: NCI-60 screen, subpanel Prostate cancer
# HCT-116 = test: NCI-60 SRB screen: colon cancer HCT-116; assay type: cell-based; details: Homo sapiens, 48 h, HCT-116
# PC-3 = test: NCI-60 SRB screen: prostate cancer PC-3; assay type: cell-based, human; details: PC-3
# M14 = test: NCI-60 SRB screen: melanoma M14; assay type: cell-based, human; details: M14
# [3] = Homo sapiens, five concentrations, 48 h, SRB, read-out: GI50
# [4] = single dose 10 µM, read-out: Percentage Cell Growth
# [5] = five concentrations, SRB, read-out: GI50
smiles,measurement,setting,value
C=C(C)[C@@H]1CC[C@]2(C(=O)NCCNCCNCCN)CC[C@]3(C)[C@H](CC[C@@H]4[C@@]5(C)CCC(=O)C(C)(C)[C@@H]5CC[C@]43C)[C@@H]12 [Compound 11],GI50,UACC-257; [3],7.91 µM
same,Percentage Cell Growth,UACC-257; single dose 10 µM,−10.66%
same,"MID b, average sensitivity of all cell line of particular subpanel",Colon Cancer subpanel,7.68 µM
same,"Selectivity, ratio MID a: MID b",Colon Cancer subpanel,1.19
same,activity at 10 µM,SR; [4],4.96%
same,GI50,SR; [5],5.91 µM
same,GI50,UACC-62; [3],8.96 µM
same,Percentage Cell Growth,UACC-62; single dose 10 µM,−77.94%
same,"cancer cell lethality, range of percentage growth",[1]; cell lines with negative growth,−4.36% to −96.35%
same,cases of cancer cell lethality,[1]; number of cell lines,50
same,Percentage Cell Growth,A498; single dose 10 µM,80.81%
same,GI50,A498; [3],42.6 µM
same,GI50,SK-OV-3; [3],10.6 µM
same,Percentage Cell Growth,SK-OV-3; single dose 10 µM,70.49%
same,GI50,NCI-H522; [3],8.72 µM
same,Percentage Cell Growth,NCI-H522; single dose 10 µM,−69.70%
same,activity at 10 µM,MCF7; [4],-58%
same,GI50,MCF7; [5],7.38 µM
same,GI50,SK-MEL-28; [3],8.49 µM
same,Percentage Cell Growth,SK-MEL-28; single dose 10 µM,−73.91%
same,Percentage Cell Growth,COLO 205; single dose 10 µM,−47.48%
same,GI50,COLO 205; [3],8.74 µM
same,"MID b, average sensitivity of all cell line of particular subpanel",Melanoma subpanel,12.84 µM
same,"Selectivity, ratio MID a: MID b",Melanoma subpanel,0.71
same,"MID b, average sensitivity of all cell line of particular subpanel",Leukemia subpanel,7.73 µM
same,"Selectivity, ratio MID a: MID b",Leukemia subpanel,1.19
same,GI50,NCI-H226; [3],7.74 µM
same,Percentage Cell Growth,NCI-H226; single dose 10 µM,74.30%
same,"MID b, average sensitivity of all cell line of particular subpanel",CNS cancer subpanel,7.76 µM
same,"Selectivity, ratio MID a: MID b",CNS cancer subpanel,1.18
same,GI50,LOX IMVI; [3],8.72 µM
same,Percentage Cell Growth,LOX IMVI; single dose 10 µM,−68.23%
same,GI50,NCI/ADR-RES; [3],8.41 µM
same,Percentage Cell Growth,NCI/ADR-RES; single dose 10 µM,−73.33%
same,GI50,SNB-19; [3],8.5 µM
same,Percentage Cell Growth,SNB-19; single dose 10 µM,−78.54%
same,GI50,SN12C; [3],7.56 µM
same,Percentage Cell Growth,SN12C; single dose 10 µM,−88.48%
same,activity at 10 µM,HL-60(TB); [4],-35.6%
same,GI50,HL-60(TB); [5],8.88 µM
same,GI50,[2]; read-out: GI50 ranges against all panels of NCI60,5.6 to 50 µM
same,GI50,"[2]; read-out: MID a, average sensitivity of all cell line (GI50-MID)",9.17 µM
same,Percentage Cell Growth,BT-549; single dose 10 µM,58.31%
same,GI50,BT-549; [3],8.91 µM
same,GI50,UO-31; [3],6.85 µM
same,Percentage Cell Growth,UO-31; single dose 10 µM,−96.35%
same,GI50,MDA-MB-468; [3],8.09 µM
same,Percentage Cell Growth,MDA-MB-468; single dose 10 µM,−49.06%
same,activity at 10 µM,SW-620; [4],-76.7%
same,GI50,SW-620; [5],7.91 µM
same,Percentage Cell Growth,HCT-15; single dose 10 µM,−36.56%
same,GI50,HCT-15; [3],7.65 µM
same,Percentage Cell Growth,786-0; single dose 10 µM,−84.46%
same,GI50,786-0; [3],7.8 µM
same,"MID b, average sensitivity of all cell line of particular subpanel",Breast cancer subpanel,8.04 µM
same,"Selectivity, ratio MID a: MID b",Breast cancer subpanel,1.14
same,GI50,SK-MEL-2; [3],> 50 µM
same,Percentage Cell Growth,SK-MEL-2; single dose 10 µM,56.36%
same,GI50,OVCAR-4,7.39 µM
same,"MID b, average sensitivity of all cell line of particular subpanel",Prostate cancer subpanel,6.87 µM
same,"Selectivity, ratio MID a: MID b",Prostate cancer subpanel,1.33
same,activity at 10 µM,HCT-116; [4],-80.7%
same,GI50,HCT-116; [5],6.65 µM
same,GI50,PC-3; [3],6.26 µM
same,Percentage Cell Growth,PC-3; single dose 10 µM,−24.64%
same,GI50,M14; [3],8.38 µM
same,Percentage Cell Growth,M14; single dose 10 µM,−62.82%
